{"source": "PubChem BioAssay (NCI)", "assay_in_all_cases": "NCI tumour cell line growth inhibition, 384-well format", "key": {"[1]": {"tested_on": "NCI-H23 lung"}, "[2]": {"tested_on": "NCI-H322M lung"}, "[3]": {"tested_on": "NCI-H460 NSCLC"}, "[4]": {"tested_on": "NCI-H522 lung"}, "[5]": {"tested_on": "NCI/ADR-RES ovarian"}, "[6]": {"tested_on": "OVCAR-3 ovarian"}, "[7]": {"tested_on": "OVCAR-4 ovarian"}, "[8]": {"tested_on": "OVCAR-5 ovarian"}, "[9]": {"tested_on": "OVCAR-8 ovarian"}, "[10]": {"tested_on": "PC-3 prostate"}, "[11]": {"tested_on": "RPMI-8226 leukemia"}, "[12]": {"tested_on": "RXF 393 renal"}, "[13]": {"tested_on": "SF-268 CNS"}, "[14]": {"tested_on": "SF-295 CNS"}, "[15]": {"tested_on": "SF-539 CNS"}, "[16]": {"tested_on": "SK-MEL-2 melanoma"}, "[17]": {"tested_on": "SK-MEL-28 melanoma"}, "[18]": {"tested_on": "SK-MEL-5 melanoma"}, "[19]": {"tested_on": "SK-OV-3 ovarian"}, "[20]": {"tested_on": "SN12C renal"}, "[21]": {"tested_on": "SNB-19 CNS"}, "[22]": {"tested_on": "SNB-75 CNS"}, "[23]": {"tested_on": "SR leukemia"}, "[24]": {"tested_on": "SW-620 colon"}, "[25]": {"tested_on": "T-47D breast"}, "[26]": {"tested_on": "TK-10 renal"}, "[27]": {"tested_on": "U251 glioblastoma"}, "[28]": {"tested_on": "UACC-257 melanoma"}, "[29]": {"tested_on": "UACC-62 melanoma"}, "[30]": {"tested_on": "UO-31 renal"}}, "note": "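GI50 marks 50% less growth. Definition used: TGI = concentration required for complete inhibition of growth.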", "data": [{"smiles": "COc1cc2nc(C)nc(N[C@H](C)c3cc(N)cc(C(F)(F)F)c3)c2cc1O[C@H]1CCOC1", "values": [{"measurement": "GI50", "setting": "[1]", "result": 3.42, "unit": "µM"}, {"measurement": "TGI", "setting": "[1]", "result": 17.7, "unit": "µM"}, {"measurement": "GI50", "setting": "[2]", "result": 11.1, "unit": "µM"}, {"measurement": "TGI", "setting": "[2]", "result": 23.1, "unit": "µM"}, {"measurement": "GI50", "setting": "[3]", "result": 12, "unit": "µM"}, {"measurement": "TGI", "setting": "[3]", "result": 24.6, "unit": "µM"}, {"measurement": "GI50", "setting": "[4]", "result": 2.34, "unit": "µM"}, {"measurement": "TGI", "setting": "[4]", "result": 19.4, "unit": "µM"}, {"measurement": "GI50", "setting": "[5]", "result": 12.5, "unit": "µM"}, {"measurement": "TGI", "setting": "[5]", "result": 25.4, "unit": "µM"}, {"measurement": "GI50", "setting": "[6]", "result": 6.28, "unit": "µM"}, {"measurement": "TGI", "setting": "[6]", "result": 20.1, "unit": "µM"}, {"measurement": "GI50", "setting": "[7]", "result": 8.7, "unit": "µM"}, {"measurement": "TGI", "setting": "[7]", "result": 21.4, "unit": "µM"}, {"measurement": "GI50", "setting": "[8]", "result": 11, "unit": "µM"}, {"measurement": "TGI", "setting": "[8]", "result": 23.1, "unit": "µM"}, {"measurement": "GI50", "setting": "[9]", "result": 12.7, "unit": "µM"}, {"measurement": "TGI", "setting": "[9]", "result": 25.3, "unit": "µM"}, {"measurement": "GI50", "setting": "[10]", "result": 11, "unit": "µM"}, {"measurement": "TGI", "setting": "[10]", "result": 23.1, "unit": "µM"}, {"measurement": "GI50", "setting": "[11]", "result": 2.13, "unit": "µM"}, {"measurement": "TGI", "setting": "[11]", "result": 13.2, "unit": "µM"}, {"measurement": "GI50", "setting": "[12]", "result": 2.43, "unit": "µM"}, {"measurement": "TGI", "setting": "[12]", "result": 12.1, "unit": "µM"}, {"measurement": "GI50", "setting": "[13]", "result": 13.5, "unit": "µM"}, {"measurement": "TGI", "setting": "[13]", "result": 26.3, "unit": "µM"}, {"measurement": "GI50", "setting": "[14]", "result": 12.8, "unit": "µM"}, {"measurement": "TGI", "setting": "[14]", "result": 25.4, "unit": "µM"}, {"measurement": "GI50", "setting": "[15]", "result": 12.7, "unit": "µM"}, {"measurement": "TGI", "setting": "[15]", "result": 25.3, "unit": "µM"}, {"measurement": "GI50", "setting": "[16]", "result": 11.1, "unit": "µM"}, {"measurement": "TGI", "setting": "[16]", "result": 23.1, "unit": "µM"}, {"measurement": "GI50", "setting": "[17]", "result": 12.6, "unit": "µM"}, {"measurement": "TGI", "setting": "[17]", "result": 25.2, "unit": "µM"}, {"measurement": "GI50", "setting": "[18]", "result": 3.15, "unit": "µM"}, {"measurement": "TGI", "setting": "[18]", "result": 17.1, "unit": "µM"}, {"measurement": "GI50", "setting": "[19]", "result": 12.5, "unit": "µM"}, {"measurement": "TGI", "setting": "[19]", "result": 25.1, "unit": "µM"}, {"measurement": "GI50", "setting": "[20]", "result": 2.86, "unit": "µM"}, {"measurement": "TGI", "setting": "[20]", "result": 18.2, "unit": "µM"}, {"measurement": "GI50", "setting": "[21]", "result": 12.5, "unit": "µM"}, {"measurement": "TGI", "setting": "[21]", "result": 25.1, "unit": "µM"}, {"measurement": "GI50", "setting": "[22]", "result": 6.26, "unit": "µM"}, {"measurement": "TGI", "setting": "[22]", "result": 20, "unit": "µM"}, {"measurement": "GI50", "setting": "[23]", "result": 1.54, "unit": "µM"}, {"measurement": "TGI", "setting": "[23]", "result": 8.64, "unit": "µM"}, {"measurement": "GI50", "setting": "[24]", "result": 14.1, "unit": "µM"}, {"measurement": "TGI", "setting": "[24]", "result": 27.2, "unit": "µM"}, {"measurement": "GI50", "setting": "[25]", "result": 10.2, "unit": "µM"}, {"measurement": "TGI", "setting": "[25]", "result": 21.9, "unit": "µM"}, {"measurement": "GI50", "setting": "[26]", "result": 10.9, "unit": "µM"}, {"measurement": "TGI", "setting": "[26]", "result": 22.9, "unit": "µM"}, {"measurement": "GI50", "setting": "[27]", "result": 10.9, "unit": "µM"}, {"measurement": "TGI", "setting": "[27]", "result": 22.8, "unit": "µM"}, {"measurement": "GI50", "setting": "[28]", "result": 4.86, "unit": "µM"}, {"measurement": "TGI", "setting": "[28]", "result": 16.6, "unit": "µM"}, {"measurement": "GI50", "setting": "[29]", "result": 13.4, "unit": "µM"}, {"measurement": "TGI", "setting": "[29]", "result": 26.2, "unit": "µM"}, {"measurement": "GI50", "setting": "[30]", "result": 12.2, "unit": "µM"}, {"measurement": "TGI", "setting": "[30]", "result": 24.7, "unit": "µM"}]}]}
